Measurements taken from ChEMBL document CHEMBL3871294, “Synthesis of novel substituted pyrimidine derivatives bearing a sulfamide group and their in vitro cancer growth inhibition activity” (Bioorg Med Chem Lett, 2017).

Experiments:
[1] = Antiproliferative activity against human HT-29 cells after 48 hrs by SRB assay; assay type: functional; settings: HT-29, 48 h
[2] = Antiproliferative activity against estrogen dependent human MCF7 cells after 48 hrs by SRB assay; assay type: functional; settings: MCF7, 48 h
[3] = Antiproliferative activity against human M21 cells after 48 hrs by SRB assay; assay type: functional; settings: M21, 48 h
[4] = Antiproliferative activity against human HaCaT cells; assay type: cell-based
[5] = Antiproliferative activity against neonatal-NHDF cells; assay type: cell-based; settings: human
[6] = Antiproliferative activity against human T47D cells; assay type: functional
[7] = Antiproliferative activity against human MDA-MB-468 cells; assay type: functional
[8] = Antiproliferative activity against human MDA-MB-231 cells; assay type: functional
[9] = Antiproliferative activity against human SKBR3 cells; assay type: functional; settings: SK-BR-3

Compound | GI50 [1] | GI50 [2] | GI50 [3] | GI50 [4] | GI50 [5] | GI50 [6] | GI50 [7] | GI50 [8] | GI50 [9]
NS(=O)(=O)NCC1CCN(c2cc(-c3ccccc3F)ncn2)CC1 | 80.4 µM | 48.5 µM | > 100 µM | – | – | – | – | – | –
COC(=O)c1ccc(-c2cc(N3CCC(CNS(N)(=O)=O)CC3)ncn2)cc1 | 22.9 µM | 17.7 µM | 14.1 µM | – | – | – | – | – | –
NS(=O)(=O)NCCC1CCN(c2cc(-c3ccccc3)ncn2)CC1 | 66.5 µM | 53.2 µM | > 100 µM | – | – | – | – | – | –
NS(=O)(=O)NCCC1CCN(c2cc(-c3ccc(Cl)cc3)ncn2)CC1 | 30.5 µM | 19.7 µM | 45.2 µM | – | – | – | – | – | –
NS(=O)(=O)NCC1CCN(c2cc(-c3cccc(Cl)c3)ncn2)CC1 | 47.5 µM | 47.1 µM | 62.5 µM | – | – | – | – | – | –
CCOC(=O)c1ccc(-c2cc(N3CCC(CNS(N)(=O)=O)CC3)ncn2)cc1 | 5.7 µM | 4.1 µM | 5 µM | – | – | – | – | – | –
COc1ccc(-c2cc(N3CCC(CNS(N)(=O)=O)CC3)ncn2)cc1 | > 100 µM | 35.3 µM | > 100 µM | > 100 µM | 77 µM | 24.5 µM | > 100 µM | > 100 µM | > 100 µM
Cc1ccc(-c2cc(N3CCC(CCNS(N)(=O)=O)CC3)ncn2)cc1 | 52.3 µM | 47.5 µM | 57.6 µM | – | – | – | – | – | –
NS(=O)(=O)NCC1CCN(c2cc(-c3ccccc3Cl)ncn2)CC1 | > 100 µM | 62.4 µM | > 100 µM | > 100 µM | 93 µM | 65.5 µM | > 100 µM | > 100 µM | > 100 µM
NS(=O)(=O)NCC1CCN(c2cc(-c3cccc4ccccc34)ncn2)CC1 | 6.8 µM | 12.1 µM | 6.6 µM | – | – | – | – | – | –
NS(=O)(=O)NCCC1CCN(c2cc(-c3cccc4ccccc34)ncn2)CC1 | 3.5 µM | 5.9 µM | 1.8 µM | – | – | – | – | – | –
NS(=O)(=O)NCCC1CCN(c2cc(-c3ccccc3F)ncn2)CC1 | 51.8 µM | > 100 µM | 81.8 µM | – | – | – | – | – | –
NS(=O)(=O)NCC1CCN(c2cc(-c3ccccc3)ncn2)CC1 | > 100 µM | 34.3 µM | > 100 µM | > 100 µM | > 100 µM | 24.1 µM | > 100 µM | > 100 µM | > 100 µM
NS(=O)(=O)NCC1CCN(c2cc(-c3ccc(C(F)(F)F)cc3)ncn2)CC1 | 29.1 µM | 22.5 µM | 43.1 µM | – | – | – | – | – | –
CC(C)(C)c1ccc(-c2cc(N3CCC(CNS(N)(=O)=O)CC3)ncn2)cc1 | 8.9 µM | 19.7 µM | 19.3 µM | – | – | – | – | – | –
CCOC(=O)c1ccc(-c2cc(N3CCC(CCNS(N)(=O)=O)CC3)ncn2)cc1 | 6.8 µM | 6.2 µM | 9 µM | – | – | – | – | – | –
CC(C)(C)c1ccc(-c2cc(N3CCC(CCNS(N)(=O)=O)CC3)ncn2)cc1 | 10.3 µM | 13.1 µM | 18.4 µM | – | – | – | – | – | –
COc1ccccc1-c1cc(N2CCC(CNS(N)(=O)=O)CC2)ncn1 | > 100 µM | 10.1 µM | > 100 µM | > 100 µM | > 100 µM | > 100 µM | > 100 µM | > 100 µM | > 100 µM
NS(=O)(=O)NCCC1CCN(c2cc(-c3ccccc3Cl)ncn2)CC1 | 52.9 µM | 44.8 µM | 93.9 µM | – | – | – | – | – | –
NS(=O)(=O)NCCC1CCN(c2cc(-c3cccc(Cl)c3)ncn2)CC1 | 31.6 µM | 31.2 µM | 50.7 µM | – | – | – | – | – | –
Cc1ccc(-c2cc(N3CCC(CNS(N)(=O)=O)CC3)ncn2)cc1 | 33.9 µM | 30.6 µM | 71 µM | – | – | – | – | – | –
NS(=O)(=O)NCCC1CCN(c2cc(-c3ccc(C(F)(F)F)cc3)ncn2)CC1 | 22.6 µM | 15.2 µM | 34.8 µM | – | – | – | – | – | –
COc1ccccc1-c1cc(N2CCC(CCNS(N)(=O)=O)CC2)ncn1 | 74.3 µM | 69.8 µM | 96.9 µM | – | – | – | – | – | –
NS(=O)(=O)NCC1CCN(c2cc(-c3ccc(Cl)cc3)ncn2)CC1 | 37.7 µM | 25.5 µM | 50.3 µM | – | – | – | – | – | –
CCCCc1ccc(-c2cc(N3CCC(CCNS(N)(=O)=O)CC3)ncn2)cc1 | 13.3 µM | 11.3 µM | 15.1 µM | – | – | – | – | – | –
CCCCc1ccc(-c2cc(N3CCC(CNS(N)(=O)=O)CC3)ncn2)cc1 | 15.2 µM | 21.8 µM | 47.2 µM | – | – | – | – | – | –
COC(=O)c1ccc(-c2cc(N3CCC(CCNS(N)(=O)=O)CC3)ncn2)cc1 | 19.6 µM | 17.6 µM | 19.6 µM | – | – | – | – | – | –
COc1ccc(-c2cc(N3CCC(CCNS(N)(=O)=O)CC3)ncn2)cc1 | 72.3 µM | 56.6 µM | 69.8 µM | – | – | – | – | – | –
